Test results taken from patent US7214386B2, “Method for the treatment and prevention of overweight in mammals” (priority 2002, dated 2007).

What was measured:
[1] = Plasma glucose in rats (oxidase-peroxidase method); details: rats on high fat diet, after 2½ weeks of treatment versus after 1 week on the high fat diet
[2] = Plasma insulin in rats (radioimmunoassay); details: rats on high fat diet, after 2½ weeks of treatment versus after 1 week on the high fat diet
[3] = test system: 3T3-L1 cells; experiment: Effect of dill extract on isoprenaline-stimulated lipolysis (glycerol formation) in differentiated 3T3-L1 cells; type: cell-based; details: 24 hours incubation, glycerol formation of sample A divided by that of sample B (isoprenaline alone)
Method: 3T3-L1 cells were grown in T75 flasks. The cells were detached by trypsin incubation (±5 min at 37° C.). After detachment, 4 ml lipolysis standard medium was added to the flask (DMEM; 10% fetal calf serum; 4.5 g/l D-glucose; 100 U/ml penicillin; 100 μg/ml streptomycin) and the cells were suspended therein. The cell suspension was then diluted in lipolysis standard medium to 50000 cells/ml (5000 cells/100 μl), and 100 μl of this diluted cell mix was transferred to a precoated well in a 96 wells plate. […] Thereafter the solution was removed). After incubation for 48 hours at 37° C., the medium was refreshed (removal of old medium and addition of 100 μl lipolysis standard medium) and the cells incubated at 37° C. After 72 hours, the supernatant was removed and 100 μl differentiation medium (5 μg/ml bovine insuline; 0.25 μM dexamethasone; 0.5 mM IBMX; in standard medium) was added. […] After 24 hours incubation at 37° C., the glycerol concentration in the supernatant was determined using a glycerol assay (Sigma Cat.no. 337) against a standard curve of glycerol in lipolysis standard medium. The relative lipolysis inhibiting activity of the dill extract was calculated by dividing the glycerol formation of sample A of interest by the glycerol formation of sample B.

Row | Compound | plasma glucose levels (FIG. 3) [1] | plasma insulin levels (FIG. 3) [2] | Relative lipolysis inhibiting effect [3]
1 | Cn1c(=O)c2c(ncn2C)n(C)c1=O [caffeine] | significant reduction | no reduction | 
2 | CC(C)NCC(O)c1ccc(O)c(O)c1 (stereo not drawn) [isoprenaline] |  |  | 1
